The results in this text go back to patent publication US7157092B1, “Acyl pseudodipeptides, preparation method and pharmaceutical compositions containing same” (Om Pharma, priority 1998, dated 2007).

For test [1], the system named is Pb CS His6-242-310 antigen. The test is described as follows: Murine immunization with Pb CS His6-242-310 peptide: specific antibody titer (ELISA). The class given is in vivo, BALB/c mice. The conditions noted are these: 0.05 mg adjuvant + 0.02 mg antigen s.c.; for serological response following three shots: ELISA 2 weeks after third shot, FIG. 15; for anti-Pb CS His6-242-310 antibody titer after one single shot: ELISA 3 weeks after first shot, FIG. 13; for serological response after two shots: ELISA 4 weeks after second shot, FIG. 14. The procedure: Antigen: Pb CS([…] Chem., 8: (1979) 350–341).
Serum sampling: Blood sampling is conducted at weeks 0, 3, 7 and 9. Blood is allowed to stand for 6 min. at 37° C., then is kept overnight at 4° C. Serum is subsequently frozen at −80° C. until time of antibody assay.
Assay of antibodies specifically raised against Pb Cs His6 242-310 antigen is performed by ELISA. Binding of antigen is done in 96-well microtiter plates (Maxisorp F96, Nunc, DK) by conducting overnight incubation in a moist chamber at 4° C. with each well containing 0.1 ml of PBS (phosphate buffered saline) containing 0.001 mg/ml of Pb CS His6242-310 antigen. Blocking of the microtiter plate is performed with PBS containing 1% of bovine serum albumin (BSA, Fluka, Switzerland). Plates are washed with PBS containing 0.05% Tween 20 (Sigma, St. Louis, Mo., USA). Serum samples collected at 0, 3, 7 and 9 weeks are serially diluted with dilution buffer (PBS containing 2.5% of skimmed milk powder and 0.05% of Tween 20), then transferred into a microtiter plate and allowed to stand for 1 hr. at room temperature (RT). Plates are then washed with PBS, a diluted solution containing mouse polyclonal anti-immunoglobulin coupled to alkaline phosphatase (Sigma, St. Louis, Mo., USA) is then dispensed into those plates and incubated for 1 hr. at RT. […] Absorbance at 405 nm is read with a microtiter plate reader (Dynatech 25000 ELISA reader, Ashford, Middlesex, UK), each serum sample is measured in duplicate. Results stand for the mean of all measurements relating to mice in each group.
(An ELISA detects its analyte on a solid surface through an enzyme-linked reagent.)

The subject of test [2] is ovalbumin. The test is described as follows: Subcutaneous immunization with ovalbumin antigen: specific serum immunoglobulins (ELISA). The class given is in vivo, BALB/c mice. The conditions noted are these: for Immunoglobulins specifically raised against ovalbumin of IgG1 subclass / Immunoglobulins specifically raised against ovalbumin of IgG2a subclass / Immunoglobulins specifically raised against ovalbumin of IgM subclass: s.c. injections days 0 and 14, ovalbumin 50 μg, adjuvant 50 μg per injection, ± SD; for adjuvant effect on titer of antibodies specifically raised against ovalbumin: IgG1 and IgG2a subclasses, after one or two injections, FIGS. 25-27. The procedure:
To this end, 50 BALB/c mice (females, aged 8 weeks at the beginning of treatment) were divided into 5 groups as follows:
Antigen: An ovalbumin stock solution is prepared at a concentration of 0.5 mg/ml in 0.9% NaCl.
The negative control consists of a 0.9% NaCl solution without antigen.
Antigen-Adjuvant mixture: Adjuvants are allowed to stand for 20 minutes at 37° C. before vortex treatment for 3 minutes. Then the antigen and (0.9%) NaCl are added as specified in the above Table, and the antigen/adjuvant mixture is vortexed briefly before placing it on a rotary stirrer for 15 minutes at room temperature, then the whole mixture is vortexed for 3 minutes.
Immunization regimen: Injections are scheduelled on days 0 and 14. The mixtures stated in the preceeding table are administered by subcutaeous route (75 μl on the side, 150 μl in total per animal). Blood sampling is scheduelled on days 14 and 28 (orbital puncture).
Assay for anti-ovalbumin immunoglobulins: The following serum Immunolglobulins which are specifically directed against ovalbumin are assayed in duplicate by ELISA: IgG1, IgG2a, and IgM. Briefly stated, microtiter plates (NUNC Immunoplate, Roskilde, DK) are incubated (overnight coating) at 40C together with 100 μl ovalbumin (0.5 μg) in bicarbonate buffer pH 9.6). After washing with 0.5% Tween-20 (Merck Hohenbrunn, D), sera are diluted 50-, 200- and 800-fold (diluting solution: phosphate buffered saline (PBS)+1% bovine serum albumin (BSA, Sigma, St. Louis, Mo., USA)+0.02% Tween-20)). 100 μl of each dilute serum sample are added to the wells. Incubation lasts 45 minutes at 37° C.
After a second washing step, IgG1, IgG2a and IgM specifically directed to ovalbumin are incubated for 30 minutes at 37° C. together with 100 μl of anti-IgG1 antibodies (anti-mouse rat antibody)-peroxydase conjugate (Serotec, Oxford, UK), IgG2a-peroxydase conjugate (Pharmingen, San Diego, Calif., USA) and IgM-biotin conjugate (Pharmingen, San Diego, Calif., USA), diluted beforehand in PBS/BSA/Tween buffer (250-, 1000-, 500-fold dilutions, respectively). For IgM, after an extra washing step, a 3rd incubation step is required (30 min. at 37° C.) with a 1:100 dilute solution of streptavidin-peroxydase conjugate (Dako, Glostrup, DK).
After the washing step, 100 μl of a phenylene 1,2-diamine solution (OPD, Merck, Darmstadt, GFR) are added to detect peroxydase-coupled anti-IgG1 and anti-IgG2 secondary antibodies (whereas for IgM, the reagent being used is 3′, 3′, 5′,5′-tetramethylbenzidine (TMB, Sigma, St. Louis, Mo., USA). After a 20 minute incubation period at room temperature, the reaction is stopped by adding 100 μl of 2N H2SO4. Absorbance values are read at 490 nm with a Bio-Rad 3550 model plate reader
Results of each reading at 490 nm are given in arbitrary units (A.U.) per ml. This is achieved by comparing each sample with a standard prepared from different dilutions of a sample pool collected from group B at day 28 (animals injected with ovalbumin alone). As clearly understood by this term, the sample pool diluted 50-fold is at a concentration of 1000 A.U./ml. Individual results are then corrected for the corresponding dilution factor (50, 200, or 800 times). Only the mean values of each group and the standard deviation (SD) are herein reported.

Regarding `CCCCCCCCCCCC(=O)O[C@H](CCCCCCCCCCC)CC(=O)NC(CCOP(=O)(O)O)C(=O)NCCCC(CO)NC(=O)C[C@H](O)CCCCCCCCCCC` (stereo partly drawn) [OM-294-MP, 3-[(R)-3-dodecanoyloxytetradecanoylamino]-4-oxo-5-aza-9-[(R)-3-hydroxytetradecanoylamino]-decane-1,10-diol 1-dihydrogenphosphate], in test [1], the “serological response following three shots” value was “greater than that of IFA”, the “anti-Pb CS His6-242-310 antibody titer after one single shot” value is recorded as “almost as high as the response observed with Incomplete Freund's Adjuvant (IFA)” and the “serological response after two shots” value was “greater than that of IFA”. For the same compound, in test [2] (Day 14), the “Immunoglobulins specifically raised against ovalbumin of IgG1 subclass” value came to 19 ± 8 Arbitrary units/ml, the “Immunoglobulins specifically raised against ovalbumin of IgG2a subclass” value is listed as 11253 ± 12169 Arbitrary units/ml and the “Immunoglobulins specifically raised against ovalbumin of IgM subclass” value was determined as 19742 ± 5667 Arbitrary units/ml. For the same compound, in test [2] (Day 28), the “Immunoglobulins specifically raised against ovalbumin of IgG1 subclass” value amounted to 40 ± 69 Arbitrary units/ml, the “Immunoglobulins specifically raised against ovalbumin of IgG2a subclass” value was 4192 ± 2104 Arbitrary units/ml and the “Immunoglobulins specifically raised against ovalbumin of IgM subclass” value is reported as 9827 ± 2021 Arbitrary units/ml. In addition, in test [2], the “adjuvant effect on titer of antibodies specifically raised against ovalbumin” value is recorded as “significantly increase”.

Take `CCCCCCCCCCCC(=O)O[C@H](CCCCCCCCCCC)CC(=O)NC(CCOP(=O)(O)O)C(=O)NCCCC(COP(=O)(O)O)NC(=O)C[C@H](O)CCCCCCCCCCC` (stereo partly drawn) [OM-294-DP, 3-[(R)-3-dodecanoyloxytetradecanoylamino]-4-oxo-5-aza-9-[(R)-3-hydroxytetradecanoylamino]decan-1,10-diol 1, 10-bis(dihydrogenphosphate)]: in test [1], the “serological response following three shots” value is recorded as “greater than that of IFA”, the “anti-Pb CS His6-242-310 antibody titer after one single shot” value is given as “almost as high as the response observed with Incomplete Freund's Adjuvant (IFA)” and the “serological response after two shots” value is recorded as “greater than that of IFA”. For the same compound, the “adjuvant effect on titer of antibodies specifically raised against ovalbumin” value in test [2] is reported as “significantly increase”.
